Measurements reported in US20100113517A1, “METHOD FOR THE TREATMENT OF FABRY DISEASE USING PHARMACOLOGICAL CHAPERONES” (AMICUS THERAPEUTICS, INC., priority 2007, published 2010).
Where “and” joins values, the source holds several entries; their conditions need not be identical. Equal values may be shown once. Read-outs that look alike come from different tables or passages of the source.

Columns and labels:
[1] = Phase I ascending single oral dose study, safety and tolerability; format: in vivo, healthy volunteers (human); conditions: healthy male subjects, single doses 25 mg through 675 mg
Protocol: Study Design and Duration. […] Dose escalation to the next dose level (i.e., next group) proceeded following review of safety and tolerability of the previous group(s). Subjects were housed in the treatment facility from 14 hours prior to dosing until 24 hours after dosing. Meals were controlled by schedule and subjects remained abulatory for 4 hours post drug administration.
Safety and Tolerability Assessments.
Statistical Analysis. Safety data including laboratory evaluations, physical exams, adverse events, ECG monitoring and vital signs assessments were summarized by treatment group and point of time of collection. Descriptive statistics (arithmetic mean, standard deviation, median, minimum and maximum) were calculated for quantitative safety data as well as for the difference to baseline. Frequency counts were compiled for classification of qualitative safety data. In addition, a shift table describing out of normal range shifts was provided for clinical laboratory results. A normal-abnormal shift table was also be presented for physical exam results and ECGs.
Concomitant medications and medical history were listed by treatment.

[2] = Phase Ib twice daily oral dose study, pharmacokinetics; format: in vivo, healthy volunteers (human); conditions: for half-life: read-out: t½ (converted)
Protocol: Study Design and Duration. […] Subjects were housed in the treatment facility from 14 hours prior to dosing until 24 hours after dosing. Meals were controlled by schedule and subjects remained abulatory for 4 hours post drug administration
Pharmacokinetic Sampling. Blood samples (10 mL each) were collected in blood collection tubes containing EDTA before dosing and at the following times thereafter: 0.25, 0.5, 0.75, 1, 1.5, 2, 3, 4, 5, 6, 7, 8, 9, 10, 11 and 12 hours. Blood samples were cooled in an ice bath and centrifuged under refrigeration as soon as possible. Plasma samples were divided into two aliquots and stored at […] pending assay. At the end of the study, all samples were transferred to MDS Pharma Services Analytical Laboratories (Lincoln) for analysis.
Pharmacokinetic parameters were summarised by treatment group using descriptive statistics (arithmetic means, standard deviations, coefficients of variation, sample size, minimum, maximum and median).

α-Gal A [3] = test: Phase II study in Fabry patients, α-Gal A activity in white blood cells; format: in vivo, Fabry patients (human)
Protocol: Study Design. A two-arm design was planned. […] In the second arm, escalating doses of 25, 100, and then 250 mg b.i.d. over 6 weeks, followed by 50 mg/day for the remainder of the study.
α-Gal A activity. In addition, α-Gal A activity will be assessed in fractionated tissue obtained from biopsies and in blood leukocytes and plasma (from blood collected at baseline and every month).
α-Gal A Activity. […] Eight patients in the study received an acending dose of 25, 100, and then 250 mg b.i.d. over 6 weeks, followed by 50 mg/day for the remainder of the study (represented on FIG. 2 by closed circles). For purposes of calculating the percentage of normal in the table, the level of α-GAL that is normal was derived by using the average of the levels of α-GAL in white blood cells of 15 healthy volunteers from the multiple-dose Phase I study.

GL-3 = test: Phase II study in Fabry patients, GL-3 levels (kidney, skin, urine, plasma); format: in vivo, Fabry patients (human)
Protocol: Study Design. A two-arm design was planned. In one arm, eligible patients were given 150 mg of DGJ-HCl every other day for 12 weeks, with an extension up to 48 weeks. In the second arm, escalating doses of 25, 100, and then 250 mg b.i.d. over 6 weeks, followed by 50 mg/day for the remainder of the study.
GL-3 deposits. Skin, kidney and heart biopsies will be performed at baseline, 3 months and six months and evaluated for GL-3 deposits in skin fibroblasts, cardiac myocytes, and various renal cells.
GL-3 levels. […] Urine and plasma GL-3 levels at baseline and after treatment as assessed by liquid chromatography mass spectrometry were available for 10 patients. […] For the few patients that had elevated levels of GL-3 in urine or plasma at baseline, the results were difficult to interpret due to high intra-patient variability.
Skin GL-3 levels at baseline and after treatment as assessed by light and electron microscopy are available for 10 patients.

[4] = Phase II study in Fabry patients, cardiac, renal and central nervous system function; format: in vivo, Fabry patients (human); conditions: after 12 to 48 weeks of treatment
Protocol: Study Design. A two-arm design was planned. […] In the second arm, escalating doses of 25, 100, and then 250 mg b.i.d. over 6 weeks, followed by 50 mg/day for the remainder of the study. Cardiac anaylsis. In addition to the biopsies described above, MRIs and echocardiogram with strain rate evaluations will be performed at baseline, 3 and 6 months to assess cardiac morphology (e.g., left ventricular hyertrophy) and cardiac function (e.g., congestive heart failure, ischemia, infarction, arrhythmia). […] Hypertension will also be ealuated since hypertension (associated with renal dysfunction) can increase the risk for hemorrhagic stroke.

α-Gal A [5] = test: Plasma concentration at which enzyme activity enhancement is seen (clinical and preclinical studies); format: in vivo; conditions: clinical studies and preclinical studies in mice
mutant (R301Q) α-Gal A = biological target: T1, mutant (R301Q) α-Gal A (Homo sapiens, UniProt P06280, R301Q); conditions: oral administration; cited from earlier work
T1 construct: host or cells: major organs of transgenic mice overexpressing R301Q α-Gal A
T1 sequence (P06280 32-429 R301Q): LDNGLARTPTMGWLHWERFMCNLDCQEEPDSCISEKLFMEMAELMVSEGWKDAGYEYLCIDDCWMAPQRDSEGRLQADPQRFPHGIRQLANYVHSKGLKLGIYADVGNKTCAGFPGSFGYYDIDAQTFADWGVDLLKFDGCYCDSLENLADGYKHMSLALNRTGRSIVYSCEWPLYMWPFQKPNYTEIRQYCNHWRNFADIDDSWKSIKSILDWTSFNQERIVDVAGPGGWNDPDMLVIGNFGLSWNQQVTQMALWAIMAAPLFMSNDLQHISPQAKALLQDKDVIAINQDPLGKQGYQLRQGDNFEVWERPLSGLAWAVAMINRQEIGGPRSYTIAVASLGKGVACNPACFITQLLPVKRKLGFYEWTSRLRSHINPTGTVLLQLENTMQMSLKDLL

[6] = human, plasma, oral, 50 mg, 50 mg bid, Day 1
[7] = human, plasma, oral, 50 mg, 50 mg bid, Day 7
[8] = human, plasma, oral, 150 mg, 150 mg bid, Day 1
[9] = human, plasma, oral, 150 mg, 150 mg bid, Day 7

12 h cumulative renal excretion ([2]; 50 mg bid, Day 1): 16% and 16 ± 6%
12 h cumulative renal excretion ([2]; 50 mg bid, Day 7): 48% and 48 ± 7%
Cmin ([2]; 50 mg bid, Day 7): 0.4 ± 0.03 µM
12 h cumulative renal excretion ([2]; 150 mg bid, Day 1): 42% and 42 ± 7%
12 h cumulative renal excretion ([2]; 150 mg bid, Day 7): 60% and 60 ± 5%
Cmin ([2]; 150 mg bid, Day 7): 1.2 ± 0.1 µM
time of peak concentrations, on average ([2]; all dose levels (50 and 150 mg b.i.d.)): approximately 3 hours
increase of Cmax with dose ([2]; doses increased from 50 mg to 150 mg): dose-proportional manner
concentration at 7 day ([2]; human, plasma, oral, 50 mg b.i.d., Day 7, read-out: Cmin): 0.4 µM
Cmax [2, 6]: 2.3 ± 0.3 µM
Tmax [2, 6]: 2.9 ± 0.4 h
Cmax [2, 7]: 3.9 ± 0.5 µM
Tmax [2, 7]: 2.5 ± 0.4 h
Cmax [2, 8]: 11.3 ± 1.5 µM
Tmax [2, 8]: 3.1 ± 0.4 h
Cmax [2, 9]: 10.8 ± 1.4 µM
Tmax [2, 9]: 2.9 ± 0.4 h
half-life ([2]; human, plasma, oral, 50 mg bid, Day 1): 2.5 h
half-life ([2]; human, plasma, oral, 150 mg bid, Day 1): 2.4 h
SMILES: OCC1NCC(O)C(O)C1O (centres unmarked) [DGJ, 1-deoxygalactonojirimycin]
safety and tolerability [1]: safe and well tolerated
enzyme activity at the lowest dose evaluated (α-Gal A [3]; 25 mg b.i.d., Fabry patients): increased enzyme activity
restoration of α-Gal A activity levels by titration (α-Gal A [3]; as measured in white blood cells): to the normal range
enzyme activity after dose reduction (α-Gal A [3]; dose reduced after 6 weeks to 50 mg/day): remains elevated
patients with an increase in the activity of the enzyme deficient in Fabry disease (α-Gal A [3]; first eleven patients treated for at least 12 weeks, white blood cells): 10 of the 11
kidney GL-3 by electron microscopy, one patient (GL-3; 12 weeks of treatment, mesangial cells, glomerular endothelium, distal tubules): observed decrease in GL-3
kidney GL-3 by electron microscopy, second patient (GL-3; 24 weeks of treatment, same kidney cell types, not independently conclusive (lower baseline GL-3)): showed a decrease of GL-3 levels
GL-3 in other kidney cell types including interstitial capillaries (GL-3; both patients): the decreases were not significant
urine and plasma GL-3 levels by liquid chromatography mass spectrometry (GL-3; most of 10 patients, baseline and after treatment): normal or near normal both before and after treatment
skin GL-3 levels by light and electron microscopy (GL-3; seven of 10 patients, baseline and after treatment): normal or near normal both before and after treatment
cardiac, renal and central nervous system function [4]: no clinically meaningful changes
plasma concentration at which the pharmacological effect (enzyme activity enhancement) is seen (α-Gal A [5]): approximately 0.4 μM
enzyme activity in major organs (mutant (R301Q) α-Gal A): substantially elevated
